Measurements taken from patent US20060079453A1, “Hla binding peptides and their uses” (priority 2002, published 2006).
Read-outs that look alike come from different tables or passages of the source. No end group written: not given here.

Legend:
Experiment in all cases: biochemical
Format in all cases: binding
[1] = biological target: HLA-DR DRB3*0101 (DR52) (Homo sapiens, UniProt P01903+P79483)
[2] = biological target: HLA-DR DRB5*0101 (DR51) (Homo sapiens, UniProt P01903+Q30154)
[3] = biological target: HLA-DR DRB1*1101 (DR11) (Homo sapiens, UniProt P01903+P01911, A100R/A169T/A87E/I96F/K41T/L162R/M171V/P40S/Q125H/Q178H/Q39Y/Q99D/R42S/S66Y/T262R/V115G/W38E)
HLA-DR DRB1*1101 (DR11), sequence (P01903 26-254 limits assumed, other chains not shown): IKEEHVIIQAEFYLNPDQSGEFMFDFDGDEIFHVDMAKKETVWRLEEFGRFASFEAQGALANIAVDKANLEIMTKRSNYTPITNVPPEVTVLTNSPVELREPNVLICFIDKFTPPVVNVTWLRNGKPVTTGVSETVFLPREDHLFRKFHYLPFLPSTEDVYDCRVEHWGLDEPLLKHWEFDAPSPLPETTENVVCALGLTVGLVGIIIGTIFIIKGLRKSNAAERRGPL

[4] = biological target: HLA-DR DRB1*1302 (DR13) (Homo sapiens, UniProt P01903+P01911, A100E/A169T/K41T/L162R/M171V/P40S/Q125H/Q178H/Q39Y/Q99D/R42S/S66N/T262R/V115G/W38E/Y61H)
HLA-DR DRB1*1302 (DR13), sequence (P01903 26-254 limits assumed, other chains not shown): as above

[5] = biological target: HLA-DR DRB1*0401 (DR4) (Homo sapiens, UniProt P01903+P01911, A100K/A169T/F76Y/I96L/K127E/L162R/M171V/N62H/P40V/Q125Y/R42H/S133A/S149N/S66Y/V115G/V209L/W38E); conditions: DRB1 *0401
[6] = biological target: HLA-DR DRB4*0101 (DR53) (Homo sapiens, UniProt P01903+P13762, G164S)
[7] = biological target: HLA-DR DRB1*0901 (DR9) (Homo sapiens, UniProt P01903+P01911, A100R/A103E/D57H/D86V/F55Y/F60I/F76Y/I96F/K127E/L162R/M171V/P40D/Q125H/Q99R/R33Q/R42F/S133A/S66N/T210M/V115G/W38K/Y107V/Y59G/Y89S); conditions: DRB1 *0901
[8] = biological target: HLA-DR DRB1*0701 (DR7) (Homo sapiens, UniProt P01903+P01911, A100R/A102G/A103Q/D57E/D86V/E43K/F76Y/K127E/L162R/M171V/P40G/Q125H/Q99D/R33Q/R42Y/R54Q/S133A/S66F/T210M/V115G/Y107V/Y59L/Y89S); conditions: DRB1 *0701
[9] = biological target: HLA-DR DRB1*1501 (DR15) (Homo sapiens, UniProt P01903+P01911)
[10] = biological target: HLA-DR DRB1*0802 (DR8) (Homo sapiens, UniProt P01903+P01911, A100R/A103L/A169T/F76Y/H45Y/I96F/K41T/L162R/M171V/P40S/Q125H/Q178H/Q39Y/Q99D/R218S/R42G/S66Y/V115G/W38E)
[11] = biological target: HLA-DR DRB1*0301 (DR3) (Homo sapiens, UniProt P01903+P01911, A100K/A102G/A103R/A169T/F55Y/I96L/K41T/L162R/M171V/P40S/Q125H/Q178H/Q39Y/R42S/S66N/T106N/T262R/W38E/Y61H)
HLA-DR DRB1*0301 (DR3), sequence (P01903 26-254 limits assumed, other chains not shown): as above

Sequence	IC50 ([1]; read-out: DRB3 *0101) [µM]	IC50 ([2]; read-out: DRB5 *0101) [µM]	IC50 ([3]; read-out: DRB1 *1101) [µM]	IC50 ([4]; read-out: DRBI *1302) [µM]	IC50 ([6]; read-out: DRB4 *0101) [µM]	other results
LGFFPDHQLDPAFRAN	1.45					
LGFLQRSSNTQTQKL	> 1750	0.339	26.2	0.021		
LMAFTAAVTS						IC50 [5]: 0.321 µM; IC50 ([6]; DRB4 *0101): 11.7 µM; IC50 ([2]; DRB5 *0101): > 12.6 µM; IC50 [7]: 0.16 µM; IC50 ([3]; DRB1 *1101): > 23.3 µM; IC50 [8]: 0.24 µM; IC50 ([9]; DRBI *1501): 1.93 µM; IC50 [10]: > 40.6 µM; IC50 ([4]; DRBI *1302): > 2.46 µM; IC50 [11]: > 74 µM
LPSWATEDTMTKIRE	5.97		> 66.7	> 35	> 11.1	IC50 ([9]; read-out: DRBI *1501): > 45.5 µM
LWQLNGRLEYCLKDR						IC50 [1]: 29 µM
MSAMTALAALFPPEG	7.16	63.2	> 200			
MTNLAALFPPEGVSI	> 8.83	141	141		4.61	
QAKKEKLNIWSEDNADSGQ						IC50 [8]: > 250 µM; IC50 [1]: > 5.56 µM; IC50 [11]: > 900 µM
RLFDNAMLRAHRLHQ	> 270	0.058		0.738	1.63	IC50 ([9]; read-out: DRBI *1501): 0.018 µM
SAAPLRTITADTFRK [SAAPLRT1TADTFRK]						IC50 ([6]; DRB4 *0101): 0.017 µM; IC50 ([2]; DRB5 *0101): 0.045 µM; IC50 ([3]; DRB1 *1101): 3.88 µM; IC50 [1]: 2.11 µM; IC50 ([9]; DRBI *1501): 0.858 µM; IC50 ([4]; DRBI *1302): 0.809 µM
SHDLMLLRLSEPAKI	5.36	2.03		0.0018	0.01	
